Assay results reported in patent US8461328B2, “Tricyclic heterocyclic compounds, compositions and methods of use thereof” (Genentech, Inc., priority 2010, dated 2013).

Legend:
Type in all cases: biochemical
JAK1 = target: T1, JAK1 (Homo sapiens, UniProt P23458); experiment: JAK1 inhibition (Table 4); settings: read-out: JAK1 Ki
T1 construct: made in house; host or cells: SF9 insect cells (baculovirus)

JAK2 = target: T2, JAK2 (Homo sapiens, UniProt O60674); experiment: JAK2 inhibition (Table 4); settings: read-out: JAK2 Ki
T2 construct: made in house; host or cells: SF9 insect cells (baculovirus)
T2 sequence (O60674 812-1132): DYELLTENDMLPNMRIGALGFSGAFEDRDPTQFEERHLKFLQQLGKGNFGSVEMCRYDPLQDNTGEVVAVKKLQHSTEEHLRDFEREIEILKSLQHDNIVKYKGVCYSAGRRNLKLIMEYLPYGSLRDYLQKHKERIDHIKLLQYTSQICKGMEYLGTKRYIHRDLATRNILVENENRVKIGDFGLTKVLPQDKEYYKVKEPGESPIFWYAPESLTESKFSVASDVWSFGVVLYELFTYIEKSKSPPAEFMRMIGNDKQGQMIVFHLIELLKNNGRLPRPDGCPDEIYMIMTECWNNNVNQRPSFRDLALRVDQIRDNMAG

JAK3 = target: T3, JAK3 (Homo sapiens, UniProt P52333); experiment: JAK3 inhibition (Table 4); settings: read-out: JAK3 Ki
T3 construct: made in house; host or cells: SF9 insect cells (baculovirus)
T3 sequence (P52333 783-1124): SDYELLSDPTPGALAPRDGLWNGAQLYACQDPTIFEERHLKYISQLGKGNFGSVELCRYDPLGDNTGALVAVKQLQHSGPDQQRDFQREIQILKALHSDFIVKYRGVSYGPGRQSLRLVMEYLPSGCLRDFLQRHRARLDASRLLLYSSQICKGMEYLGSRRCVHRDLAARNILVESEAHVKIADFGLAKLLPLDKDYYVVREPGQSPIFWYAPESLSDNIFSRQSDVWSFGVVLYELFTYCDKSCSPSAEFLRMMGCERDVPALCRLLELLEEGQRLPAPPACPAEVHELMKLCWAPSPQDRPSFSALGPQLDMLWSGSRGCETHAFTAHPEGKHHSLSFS

TYK2 = target: T4, TYK2 (Homo sapiens, UniProt P29597); experiment: TYK2 inhibition (Table 4)
T4 construct: made in house; host or cells: SF9 insect cells (baculovirus)
T4 sequence (P29597 873-1187): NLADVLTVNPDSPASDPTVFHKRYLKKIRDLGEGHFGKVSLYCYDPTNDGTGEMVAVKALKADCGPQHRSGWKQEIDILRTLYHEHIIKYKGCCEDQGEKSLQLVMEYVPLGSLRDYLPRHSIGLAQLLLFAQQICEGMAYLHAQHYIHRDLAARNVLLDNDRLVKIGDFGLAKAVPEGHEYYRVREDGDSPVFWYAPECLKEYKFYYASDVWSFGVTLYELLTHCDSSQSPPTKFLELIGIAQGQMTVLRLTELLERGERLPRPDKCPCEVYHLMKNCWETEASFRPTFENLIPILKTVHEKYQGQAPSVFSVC

T1 sequence (P23458 852-1154): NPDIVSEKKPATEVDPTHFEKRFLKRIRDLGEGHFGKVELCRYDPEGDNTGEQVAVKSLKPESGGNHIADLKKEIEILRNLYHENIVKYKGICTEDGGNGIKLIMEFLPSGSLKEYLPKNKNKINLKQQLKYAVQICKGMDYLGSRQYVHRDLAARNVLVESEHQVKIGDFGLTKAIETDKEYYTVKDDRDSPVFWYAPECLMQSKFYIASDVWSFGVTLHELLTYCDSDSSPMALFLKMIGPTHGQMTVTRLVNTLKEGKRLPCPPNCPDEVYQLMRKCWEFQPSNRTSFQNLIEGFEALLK

SMILES | Ki (JAK1) [nM] | Ki (JAK2) [nM] | Ki (JAK3) [nM] | Ki (TYK2) [nM]
O=S1(=O)CCN(C2CCC(n3cnc4cnc5[nH]ccc5c43)CC2)CC1 (stereo not shown) [Example 766, 1-[4-(1,1-Dioxo-thiomorpholin-4-yl)-cyclohexyl]-1,6-dihydro-1,3,5,6-tetraaza-as-indacene] | 0.97 | 3.07 | 68.5 | 21.1
c1cc2c(ncc3ncn([C@H]4CCCNC4)c32)[nH]1 [Example 364, (S)-1-Piperidin-3-yl-1,6-dihydro-1,3,5,6-tetraaza-as-indacene] | 36.9 | 179 | 171 | 207
COCCN1CCC(n2c(C(C)O)nc3cnc4[nH]ccc4c32)CC1 (racemic) [Example 539, 1-{1-[1-(2-Methoxy-ethyl)-piperidin-4-yl]-1,6-dihydro-1,3,5,6-tetraaza-as-indacen-2-yl}-ethanol] | 12.7 | 194 | 97.4 | 352
Cc1nc2cnc3[nH]ccc3c2n1C1(C)CCN(C(=O)CC#N)CC1 [Example 741, 3-[4-Methyl-4-(2-methyl-6H-1,3,5,6-tetraaza-as-indacen-1-yl)-piperidin-1-yl]-3-oxo-propionitrile] | 103 | 528 | 1130 | 568
N#CCCN1CCC(n2c(CCNC(=O)c3ccc(F)cc3)nc3cnc4[nH]ccc4c32)CC1 [Example 373, N-(2-{1-[1-(2-Cyano-ethyl)-piperidin-4-yl]-1,6-dihydro-1,3,5,6-tetraaza-as-indacen-2-yl}-ethyl)-4-fluoro-benzamide] | 4.07 | 27 | 52 | 120
C[C@@H](O)c1nc2cnc3[nH]ccc3c2n1C1CCC(NCC(F)F)CC1 (stereo partly drawn) [Example 1002, (R)-1-{1-[4-(2,2-Difluoro-ethylamino)-cyclohexyl]-1,6-dihydro-1,3,5,6-tetraaza-as-indacen-2-yl}-ethanol] | 0.97 | 22.1 | 111 | 4.76
CS(=O)(=O)NCc1nc2cnc3[nH]ccc3c2n1C1CCNCC1(F)F (racemic) [Example 945, N-[1-(3,3-Difluoro-piperidin-4-yl)-1,6-dihydro-1,3,5,6-tetraaza-as-indacen-2-ylmethyl]-methanesulfonamide] | 3.19 | 35 | 20.3 | 32.5
N#Cc1nc2cnc3[nH]ccc3c2n1C1CCN(Cc2cccnc2)CC1 [Example 290, 1-(1-Pyridin-3-ylmethyl-piperidin-4-yl)-1,6-dihydro-1,3,5,6-tetraaza-as-indacene-2-carbonitrile] | 3.94 | 4.88 | 6.27 | 204
CS(=O)(=O)CCN1CCC(n2cnc3cnc4[nH]ccc4c32)CC1 [Example 59, 1-[1-(2-Methanesulfonyl-ethyl)-piperidin-4-yl]-1,6-dihydro-1,3,5,6-tetraaza-as-indacene] | 1.96 | 6.01 | 27.7 | 30.5
C[C@@H](O)c1nc2cnc3[nH]ccc3c2n1C1CCN(CCF)CC1 [Example 873, (R)-1-{1-[1-(2-Fluoro-ethyl)-piperidin-4-yl]-1,6-dihydro-1,3,5,6-tetraaza-as-indacen-2-yl}-ethanol] | 20.7 | 124 | 72.7 | 422
CC1(n2cnc3cnc4[nH]ccc4c32)CCN(Cc2cccc(C#N)c2)CC1 [Example 754, 3-[4-Methyl-4-(6H-1,3,5,6-tetraaza-as-indacen-1-yl)-piperidin-1-ylmethyl]-benzonitrile] | 40.4 | 286 | 961 | 2370
Cc1nc2cnc3[nH]ccc3c2n1[C@@H]1CC[C@@H](NC2COC2)C1 [Example 625, [(1R,3R)-3-(2-Methyl-6H-1,2,3,5,6-tetraaza-as-indacen-1-yl)-cyclopentyl]-oxetan-3-yl-amine] | 33.9 | 99.7 | 169 | 218
N#CC1(C(=O)N2CCC[C@@H](n3cnc4cnc5[nH]ccc5c43)C2)CC1 [Example 221, 1-[(R)-3-(6H-1,3,5,6-Tetraaza-as-indacen-1-yl)-piperidine-1-carbonyl]-cyclopropanecarbonitrile] | 2.52 | 3.92 | 8.12 | 9.37
c1ccc(CN2CCC(n3nnc4cnc5[nH]ccc5c43)CC2)cc1 [Example 66, 1-(1-Benzyl-piperidin-4-yl)-1,6-dihydro-1,2,3,5,6-pentaaza-as-indacene] | 7.15 | 9.86 | 68.3 | 240
Cn1cc(CCc2nc3cnc4[nH]ccc4c3n2C2CCN(CCC#N)CC2)cn1 [Example 412, 3-(4-{2-[2-(1-Methyl-1H-pyrazol-4-yl)-ethyl]-6H-1,3,5,6-tetraaza-as-indacen-1-yl}-piperidin-1-yl)-propionitrile] | 21.6 | 78.7 | 125 | 545
CC(O)c1nc2cnc3[nH]ccc3c2n1C1CCN(CCC#N)CC1 (racemic) [Example 158, Racemic 3-{4-[2-(1-Hydroxy-ethyl)-6H-1,2,3,5,6-tetraaza-as-indacen-1-yl]-piperidin-1-yl}-propionitrile] | 3.76 | 28.2 | 18.2 | 32.9
Cc1nc2cnc3[nH]ccc3c2n1C1CCC(NC(=O)OC(C)(C)C)C1 (racemic) [Example 352, [(1S,3S)-3-(2-Methyl-6H-1,3,5,6-tetraaza-as-indacen-1-yl]-cyclopentyl]-carbamic acid tert-butyl ester] | 1.03 | 5.62 | 23.7 | 44.6
CCn1nccc1CN1CCC(n2c([C@@H](C)O)nc3cnc4[nH]ccc4c32)CC1 [Example 820, (R)-1-{1-[1-(2-Ethyl-2H-pyrazol-3-ylmethyl)-piperidin-4-yl]-1,6-dihydro-1,3,5,6-tetraaza-as-indacen-2-yl}-ethanol] | 12 | 61 | 35.8 | 166
Cc1nc2cnc3[nH]ccc3c2n1C1CNCCOC1 (stereo not shown) [Example 910, 2-Methyl-1-[1,4]oxazepan-6-yl-1,6-dihydro-1,3,5,6-tetraaza-as-indacene] | 50.2 | 212 | 323 | 213
CCOC(=O)NCCc1nc2cnc3[nH]ccc3c2n1C1CCN(CC)CC1(F)F (single isomer, unassigned) [Example 680, {2-[1-(1-Ethyl-3,3-difluoro-piperidin-4-yl)-1,6-dihydro-1,2,3,5,6-tetraaza-as-indacen-2-yl]-ethyl}-carbamic acid ethyl ester] | 7.32 | 56.3 | 28.4 | 412
CC(O)c1nc2cnc3[nH]ccc3c2n1C1CCN(CCC(F)(F)F)CC1 (stereo not shown) [Example 759, 1-{1-[1-(3,3,3-Trifluoro-propyl)-piperidin-4-yl]-1,6-dihydro-1,3,5,6-tetraaza-as-indacen-2-yl}-ethanol] | 7.13 | 118 | 37.2 | 109
CC1CN(Cc2cncnc2)CCC1n1cnc2cnc3[nH]ccc3c21 (racemic) [Example 343, 1-(3-Methyl-1-pyrimidin-5-ylmethyl-piperidin-4-yl)-1,6-dihydro-1,3,5,6-tetraaza-as-indacene] | 5.71 | 14 | 3.2 | 346
OC[C@]1(O)CC[C@H](n2nnc3cnc4[nH]ccc4c32)CC1 [Example 715, Trans-1-Hydroxymethyl-4-(6H-1,2,3,5,6-pentaaza-as-indacen-1-yl)-cyclohexanol] | 11.5 | 16.9 | 109 | 58.2
CS(=O)(=O)NCc1nc2cnc3[nH]ccc3c2n1C1CC2CCC1O2 (single isomer, unassigned) [Example 850, endo-N-[1-(7-Oxa-bicyclo[2.2.1]hept-2-yl)-1,6-dihydro-1,3,5,6-tetraaza-as-indacen-2-ylmethyl]-methanesulfonamide] | 60.5 | 134 | 106 | 361
O=C(CN1CCOCC1)N1CCC(n2cnc3cnc4[nH]ccc4c32)CC1 [Example 77, 2-Morpholin-4-yl-1-[4-(6H-1,3,5,6-tetraaza-as-indacen-1-yl)-piperidin-1-yl]ethanone] | 64.6 | 185 | 2160 | 1940
O=C(Cc1nc2cnc3[nH]ccc3c2n1C1CC2CCC1C2)N1CCC(O)CC1 (racemic) [Example 869, 2-(1-Bicyclo[2.2.1]hept-2-yl-1,6-dihydro-1,3,5,6-tetraaza-as-indacen-2-yl)-1-(4-hydroxy-piperidin-1-yl)-ethanone] | 0.89 | 17.9 | 8.69 | 10.1
CCN1CCC(n2c(CO)nc3cnc4[nH]ccc4c32)C(F)(F)C1 (racemic) [Example 941, [1-(1-Ethyl-3,3-difluoro-piperidin-4-yl)-1,6-dihydro-1,3,5,6-tetraaza-as-indacen-2-yl]-methanol] | 1.8 | 10.6 | 5.97 | 14.7
OC(CN1CCC(n2cnc3cnc4[nH]ccc4c32)CC1)(C(F)(F)F)C(F)(F)F [Example 174, 1,1,1,3,3,3-Hexafluoro-2-[4-(6H-1,2,3,5,6-tetraaza-as-indacen-1-yl)-piperidin-1-ylmethyl]-propan-2-ol] | 1.58 | 2.66 | 87.4 | 7.53
